In ChEMBL document CHEMBL4811289, “Antibacterial and Cytotoxic Phenyltetracenoid Polyketides from Streptomyces morookaense” (J Nat Prod, 2021):
Values after ≈ are worked out from the molar mass of the structure shown. Values joined by “and” are separate entries in the source; they are usually repeats but may differ in a detail not shown here. Identical values can stand only once. Counter-ions that a name gives are not always drawn.

Key:
MCF7 = experiment: Cytotoxicity against human MCF7 cells assessed as reduction in cell viability after 72 hrs by MTT assay; type: functional, cell-based
A549 = experiment: Cytotoxicity against human A549 cells assessed as reduction in cell viability after 72 hrs by MTT assay; type: functional, cell-based
Enterococcus faecium [1] = experiment: Antibacterial activity against vancomycin-resistant Enterococcus faecium incubated for 6 to 8 hrs by MABA; type: functional; settings: time 6-8 hrs
Vero = experiment: Cytotoxicity against African green monkey Vero cells assessed as reduction in cell viability after 72 hrs by MTT assay; type: cell-based, Chlorocebus sabaeus
Staphylococcus aureus [2] = experiment: Antibacterial activity against methicillin-sensitive Staphylococcus aureus incubated for 6 to 8 hrs by MABA; type: functional; settings: time 6-8 hrs
HepG2 = experiment: Cytotoxicity against human HepG2 cells assessed as reduction in cell viability after 72 hrs by MTT assay; type: functional, cell-based
HeLa = experiment: Cytotoxicity against human HeLa cells assessed as reduction in cell viability after 72 hrs by MTT assay; type: functional, cell-based
Enterococcus faecium [3] = experiment: Antibacterial activity against vancomycin-sensitive Enterococcus faecium incubated for 6 to 8 hrs by MABA; type: functional; settings: time 6-8 hrs
Staphylococcus aureus [4] = experiment: Antibacterial activity against methicillin-resistant Staphylococcus aureus ATCC 6548 incubated for 6 to 8 hrs by MABA; type: functional; settings: time 6-8 hrs
[5] = Chlorocebus sabaeus, Vero, 72 h

Row | Structure (SMILES) | IC50 (MCF7; Homo sapiens, MCF7, 72 h) [µM] | IC50 (A549; Homo sapiens, A549, 72 h) [µM] | MIC (Enterococcus faecium [1]) [µg/mL] | IC50 (Vero; [5]) [µM] | MIC (Staphylococcus aureus [2]) [µg/mL] | IC50 (HepG2; Homo sapiens, HepG2, 72 h) [µM] | IC50 (HeLa; Homo sapiens, HeLa, 72 h) [µM] | MIC (Enterococcus faecium [3]) [µg/mL] | MIC (Staphylococcus aureus [4]) [µg/mL] | IC50 (MCF7; mcf7) [µM] | IC50 (A549; a549) [µM] | IC50 (Vero; vero) | IC50 (HepG2; hepg2) [µM] | IC50 (HeLa; hela) [µM]
1 | COc1cc(C)c(-c2cc(OC)cc3cc4c(c(O)c23)C(=O)c2c(O)cc(O)cc2C4(C)C)c(O)c1 | 7.1 | 3.3 | 1.25 (≈ 2.57 µM) | 6.4 | 1.25 (≈ 2.57 µM) | 4.4 | 4.7 | 1.25 (≈ 2.57 µM) | 1.25 (≈ 2.57 µM) | – | – | – | – | –
2 | COc1cc(C)c(-c2cc(OC)c(Cl)c3cc4c(c(O)c23)C(=O)c2c(cc(OC)c(Cl)c2OC)C4(C)C)c(O)c1 | 13.1 | 8.3 | – | 9 | > 10 | 15 | 15 | > 10 | > 10 | – | – | – | – | –
3 | COc1cc2c(c(O)c1Cl)C(=O)c1c(cc3cc(O)cc(-c4c(O)cc(O)c(Cl)c4C)c3c1O)C2(C)C | 17.6 | 13.1 | – | 14.6 | – | 11.7 | 15 | – | – | – | – | – | – | –
4 | COc1cc(C)c(-c2nc(C)cc3cc4c(c(O)c23)C(=O)c2c(cc(OC)c(Cl)c2OC)C4(C)C)c(OC)c1 | 4.4 | 14.5 | – | 6.1 | > 10 | 9.5 | 3.4 | > 10 | > 10 | 8.7 | 12.6 | 10 µM | 8.7 | 3.3
5 | COc1cc2c(c(O)c1Cl)C(=O)c1c(cc3c(Cl)c(O)cc(-c4c(C)c(Cl)c(O)c(Cl)c4O)c3c1O)C2(C)C | 18.1 | 7 | – | 27.3 | – | 9.8 | 14.3 | – | – | – | – | – | – | –
6 | COC1=CC(=O)C(c2cc(OC)cc3cc4c(c(O)c23)C(=O)c2c(cc(OC)c(Cl)c2O)C4(C)C)=C(C)C1=O | > 50 | > 50 | – | > 50 | > 10 | > 50 | > 50 | > 10 | > 10 | – | – | – | – | –
7 | COc1cc(C)c(-c2cc(O)c(Cl)c3cc4c(c(O)c23)C(=O)c2c(cc(OC)c(Cl)c2O)C4(C)C)c(O)c1 | 3.6 | 2.8 | – | 9 | – | 3.2 | 3.3 | – | – | – | – | – | – | –
8 | COc1cc2c(c(O)c1Cl)C(=O)c1c(cc3cc(O)cc(-c4c(C)c(OC)c(OC)c(Cl)c4O)c3c1O)C2(C)C | 17.8 | 9.1 | 5 (≈ 8.54 µM) | 14.5 | 1.25 (≈ 2.14 µM) | 9.9 | 7.2 | 2.5 (≈ 4.27 µM) | 1.25 (≈ 2.14 µM) | – | – | – | – | –
9 | COc1c(Cl)c(C)c(-c2cc(O)cc3cc4c(c(O)c23)C(=O)c2c(cc(O)c(Cl)c2O)C4(C)C)c(O)c1Cl | 14.4 | 5 | 1.25 (≈ 2.17 µM) | 12.4 | 1.25 (≈ 2.17 µM) | 7.7 | 6 | 1.25 (≈ 2.17 µM) | 1.25 (≈ 2.17 µM) | – | – | – | – | –
10 | COc1cc2c(c(O)c1Cl)C(=O)c1c(cc3cc(O)cc(-c4c(C)c(Cl)c(O)c(Cl)c4O)c3c1O)C2(C)C | 9.2 | 4.6 | – | 12.5 | – | 4.5 | 6.1 | – | – | – | – | – | – | –
11 | COc1cc(C)c(C(=O)c2c(CC(C)=O)cc3c(c2O)C(=O)c2c(OC)cc(OC)cc2C3(C)C)c(OC)c1 | 29.3 | 13.1 | – | > 50 | > 10 | > 50 | > 50 | > 10 | > 10 | – | – | – | – | –
12 | COc1cc(C)c(-c2cc(O)cc3cc4c(c(O)c23)C(=O)c2c(cc(OC)c(Cl)c2OC)C4(C)C)c(O)c1 | 5 | 3.3 | 2.5 (≈ 4.67 µM) | 3 | 2.5 (≈ 4.67 µM) | 5.7 | 3.9 | 2.5 (≈ 4.67 µM) | 2.5 (≈ 4.67 µM) | – | – | – | – | –
13 | COc1cc(C)c(-c2cc(OC)cc3cc4c(c(O)c23)C(=O)c2c(cc(OC)c(Cl)c2O)C4(C)C)c(O)c1 | 7.5 | 7.6 | – | 8.2 | > 10 | 8.3 | 4.6 | > 10 | > 10 | – | – | – | – | –
14 | COc1cc(C)c(-c2cc(OC)c(Cl)c3cc4c(c(O)c23)C(=O)c2c(cc(OC)c(Cl)c2O)C4(C)C)c(O)c1 | 3.8 | 9 | – | 6.1 | > 10 | 9.2 | 11.5 | > 10 | > 10 | – | – | – | – | –
15 | COc1cc(-c2c(O)cc(O)c(Cl)c2C)c2c(O)c3c(cc2c1)C(C)(C)c1cc(OC)c(Cl)c(O)c1C3=O | 10.7 | 6.4 | 5 (≈ 9 µM) | 13.7 | 2.5 (≈ 4.5 µM) | 7.3 | 5.3 | 1.25 (≈ 2.25 µM) | 1.25 (≈ 2.25 µM) | – | – | – | – | –
16 | COc1cc2c(c(O)c1Cl)C(=O)c1c(cc3c(Cl)c(O)cc(-c4c(C)c(Cl)c(OC)c(Cl)c4O)c3c1O)C2(C)C | 13.9 | 5.6 | 5 (≈ 8.01 µM) | 12 | 2.5 (≈ 4 µM) | 8.8 | 9.9 | 2.5 (≈ 4 µM) | 2.5 (≈ 4 µM) | – | – | – | – | –
17 | COc1cc2c(c(O)c1Cl)C(=O)c1c(cc3c(Cl)c(O)cc(-c4c(O)cc(O)c(Cl)c4C)c3c1O)C2(C)C | 4.7 | 3.1 | – | 14.6 | – | 5.3 | 4.7 | – | – | – | – | – | – | –
18 | COc1cc2c(c(O)c1Cl)C(=O)c1c(cc3cc(O)cc(-c4c(C)c(Cl)c(O)c(Cl)c4OC)c3c1O)C2(C)C | 18.4 | 5.4 | – | 11.1 | – | 4.7 | 4.8 | – | – | – | – | – | – | –
19 | COc1cc(C)c(-c2cc(OC)cc3cc4c(c(O)c23)C(=O)c2c(cc(O)c(Cl)c2O)C4(C)C)c(O)c1 | 24.3 | 5.6 | 5 (≈ 9.6 µM) | 18.9 | 2.5 (≈ 4.8 µM) | 12.1 | 7 | 2.5 (≈ 4.8 µM) | 2.5 (≈ 4.8 µM) | – | – | – | – | –
20 | COc1cc(O)c(-c2cc(O)cc3cc4c(c(O)c23)C(=O)c2c(cc(OC)c(Cl)c2O)C4(C)C)c(C)c1Cl | 3.1 | 2.6 | – | 3.5 | – | 3.7 | 3.7 | – | – | – | – | – | – | –
21 | COc1cc(-c2c(O)cc(OC)c(Cl)c2C)c2c(O)c3c(cc2c1)C(C)(C)c1cc(OC)c(Cl)c(O)c1C3=O | 18.3 | 7.7 | – | 18 | > 10 | 10.2 | 22.4 | > 10 | > 10 | – | – | – | – | –
22 | COc1cc(C)c(-c2cc(OC)c(Cl)c3cc4c(c(O)c23)C(=O)c2c(cc(O)c(Cl)c2O)C4(C)C)c(O)c1 | 7.6 | 4.8 | 2.5 (≈ 4.5 µM) | 4.8 | 1.25 (≈ 2.25 µM) | 7.2 | 6 | 2.5 (≈ 4.5 µM) | 1.25 (≈ 2.25 µM) | – | – | – | – | –
23 | COc1cc(C)c(-c2nc(C)cc3cc4c(c(O)c23)C(=O)c2c(OC)cc(OC)cc2C4(C)C)c(OC)c1 | 5.9 | 5.1 | – | – | > 10 | 3.4 | 3.7 | > 10 | > 10 | 11.2 | 6.6 | 2.7 µM and 7.5 µM | 3.8 | 4.6
24 | COc1cc(C)c(-c2cc(O)cc3cc4c(c(O)c23)C(=O)c2c(cc(O)c(Cl)c2O)C4(C)C)c(O)c1 | 40.3 | 13.3 | 10 (≈ 19.7 µM) | 33 | 5 (≈ 9.86 µM) | 11.9 | 15.2 | 2.5 (≈ 4.93 µM) | 5 (≈ 9.86 µM) | – | – | – | – | –
25 | COc1cc(C)c(-c2cc(O)cc3cc4c(c(O)c23)C(=O)c2c(cc(OC)c(Cl)c2O)C4(C)C)c(O)c1 | 3 | 3.4 | – | 3.3 | – | 3.2 | 2.9 | – | – | – | – | – | – | –
26 | COc1cc2c(c(O)c1Cl)C(=O)c1c(cc3c(Cl)c(OC)cc(-c4c(O)cc(O)c(Cl)c4C)c3c1O)C2(C)C | 10.1 | 5.2 | 5 (≈ 8.48 µM) | 7.9 | 2.5 (≈ 4.24 µM) | 6.2 | 6.3 | 1.25 (≈ 2.12 µM) | 2.5 (≈ 4.24 µM) | – | – | – | – | –
27 | COc1cc(C)c(-c2cc(OC)cc3cc4c(c(O)c23)C(=O)c2c(cc(OC)c(Cl)c2OC)C4(C)C)c(O)c1 | 7.9 | 6.4 | – | 5.8 | > 10 | 3.2 | 4.1 | > 10 | > 10 | – | – | – | – | –
28 | COc1cc(C)c(-c2cc(O)c(Cl)c3cc4c(c(O)c23)C(=O)c2c(cc(O)c(Cl)c2O)C4(C)C)c(O)c1 | 21.7 | 8.9 | 5 (≈ 9.24 µM) | 47 | 1.25 (≈ 2.31 µM) | 9.4 | 11 | 2.5 (≈ 4.62 µM) | 1.25 (≈ 2.31 µM) | – | – | – | – | –
29 | COc1cccc2c1C(=O)c1c(O)c3c(c(O)c1C2=O)C[C@@](O)(C(=O)CO)C[C@@H]3O[C@H]1C[C@H](N)[C@H](O)[C@H](C)O1 [DOXORUBICIN HYDROCHLORIDE] | 1.02 | 0.69 | – | – | – | 0.8 | 0.31 | – | – | – | – | – | – | –
30 | CN[C@H](CC(C)C)C(=O)N[C@H]1C(=O)N[C@@H](CC(N)=O)C(=O)N[C@H]2C(=O)N[C@H]3C(=O)N[C@H](C(=O)N[C@H](C(=O)O)c4cc(O)cc(O)c4-c4cc3ccc4O)[C@H](O)c3ccc(c(Cl)c3)Oc3cc2cc(c3O[C@@H]2O[C@H](CO)[C@@H](O)[C@H](O)[C@H]2O[C@H]2C[C@](C)(N)[C@H](O)[C@H](C)O2)Oc2ccc(cc2Cl)[C@H]1O [VANCOMYCIN] | – | – | > 40 | – | – | – | – | 1.25 (≈ 0.863 µM) | 0.63 (≈ 0.435 µM) | – | – | – | – | –
